Reference: patent US12479805B2, “Indazole hydrazide compound and application thereof” (Beijing Baheal Chengchuang Pharmaceutical Research and …, priority 2021, dated 2025)
Read-outs that look alike come from different tables or passages of the source.

Tests used:
tumor cells LNCaP = assay: Anti-tumor activity assay (chemiluminescence CTG cell viability), LNCaP; assay type: cell-based; details: for IC50: Homo sapiens, 72 h, CTG chemiluminescence
Method: (§1) The frozen tumor cells (prostate cancer, ovarian cancer, etc.) were taken out from liquid nitrogen, and quickly dissolved at 37° C. The cells were added to 5 ml of the corresponding medium containing FBS and centrifuged at 300 g for 5 minutes. The precipitate was collected, resuspended with the corresponding medium and then mixed well. After that, cells were added to a 24-well cell culture dish, supplemented with the medium to a total volume of 2 mL per well at 37° C. and cultured. After the confluence reached about 90%, subculturing or counting and plating was performed.
(§2) After the cultured tumor cells were sufficient to be passaged, they were digested with trypsin and a single cell suspension was prepared. After counting, cells were adjusted to a concentration of 1.2×10^4 cells/ml with the corresponding medium. 90 μl of the mixed solution was added to a 96-well plate and incubated at 37° C. for 30 minutes. Then the mixture was added with the corresponding medium and incubated in a cell incubator at 37° C. overnight. The morphology and confluence of tumor cells were observed.
(§3) After the tumor cells were cultured overnight, serial dilutions of the compounds were prepared and added to the culture system.
(§4) The stock solution of the indazole hydrazide compound (100 mM) dissolved in DMSO was fully dissolved at room temperature. If there was any insoluble matter, heating and ultrasonication were carried out for 5 minutes to observe until dissolution.
(§5) 20 μl DMSO was added to wells 2-9 of a 96-well V-shaped compound dilution plate, and 30 μl stock solution was added to well 1. The compound dilution plate was placed on a shaking mixer. 10 μl liquid was transferred from well 1 to well 2, mixed well by pipetting and shaking, then 10 μl of liquid was transferred from well 2 to well 3, mixed well by pipetting and shaking, and so on . . . and finally 10 μl of liquid was transferred from well 8 to well 9, mixed well by pipetting and shaking, and 1000× gradient dilution stock solution was prepared. [Note: As DMSO easily absorbs moisture in the air, after the operation, the compound dilution plate was immediately sealed with parafilm, stored at 4° C., and discarded after 1 week. When using it again, the parafilm was removed after the temperature reached room temperature to avoid inaccurate concentration caused by moisture absorption.]
(§6) In the ultra-clean workbench, a 96-well sterile cell culture plate was used. 198 μl of medium was added to wells 1-9, and 2 μl of the stock solution in wells 1-9 of the 1000× stock solution was transferred to the corresponding wells 1-9 of the 96-well sterile cell culture plate, mixed well by pipetting and shaking, and […] was prepared. This stock solution needed to be prepared and used on the same day.
(§7) 10 μl of the 10× stock solution prepared on the day was added to the cell culture medium.
(§8) It was incubated for 72 h at 37° C. under 5% carbon dioxide conditions.
(§9) Chemiluminescence method was used to measure ATP level of cells to evaluate cell viability. The specific operation was performed in accordance with the instructions. After the incubation, 50 μL of CTG solution was added. After mixing well, the lysis mixture was transferred to a microplate reader. After 5-10 minutes, the chemiluminescence data were gathered in the microplate reader. Excel software was used to analyze and process the data, and GraphPad Prism 7 software was used to calculate IC50 according to the fitted dose-effect curve generated by the chemiluminescence data.
(§10) In this test, Z factor was used as a quality control indicator. Z′ factor was defined by 4 parameters: the mean (μ) and standard deviation (σ) of the positive control (positive, p) and the negative control (negative, n).
(§11) The negative control group was the untreated group with the addition of solvent (DMSO); the positive control was 2.5 μM BEZ235 or 1 μM Staurosporine. […]

tumor cells 22RV1 = assay: Anti-tumor activity assay (chemiluminescence CTG cell viability), 22RV1; assay type: cell-based; details: 22RV1 cells; for Hillslope 22RV1: fitted dose-effect curve; for IC50: Homo sapiens, 72 h, CTG chemiluminescence
Method: as §1, §2, §3, §4, §5, §6, §7, §8, §9, §10, §11

HUVEC cells = assay: 2D angiogenesis experiment (HUVEC on Matrigel); assay type: cell-based, human; details: VEGF, 4 h
Method: 3.1 Evaluation of Anti-Angiogenesis of Compounds by 2D Angiogenesis Experiment:
(1) In a 96-well plate, 50 ul of 100% Matrigel was added to each well and air bubbles should be avoided. The plate was then placed in a 37° C. incubator for 45 minutes.
(2) When the confluence of HUVEC cells in good growth state reached about 80%, the cells were digested, and resuspended in HUVEC complete medium. 40 uL of resuspension was added to each well in triplicate at a concentration of 4×10000 cells/well.
(3) 5 uL of compounds with three concentrations of high, medium and low was added to the test compound group. In the VEGF group, 5 uL of culture medium containing 200 ng/ml VEGF was added. In the solvent group, 10 uL culture medium was supplemented.
(4) Cells were incubated in a 37° C. 5% CO2 incubator for 4 h, and photos of each well were taken.

[1] = tested on: tumor cells and HUVEC cells spheroids; assay: 3D co-culture of tumor cells and HUVEC cells anti-angiogenesis experiment; assay type: cell-based, human; details: 0.3 μM, 1.0 μM, day 2 and day 5, VEGF 20 ng/mL
Method: 3.2 Experiments of Evaluating Anti-Angiogenesis of Compounds by 3D Co-Culture of Tumor Cells and HUVEC Cells: • (1) 25,000 tumor cells and 25,000 HUVEC cells were mixed and plated in a low-adsorption 24-well plate. Cells were shaken horizontally in a 37° C. incubator and placed for 24 h to form a suspension of Spheroids. • (2) 40 uL of 10% Matrigel was added to each well, and placed at 37° C. for 45 min to crosslink and harden the gel. 40 uL of suspension with Spheroids was added to wells. • (3) After 24 h, 10 uL of compounds with three concentrations of high, medium and low was added to the test compound group. In the VEGF group, 10 uL of culture medium containing 200 ng/ml VEGF was added. In the solvent group, 20 uL culture medium was supplemented. • (4) Cells were incubated in a 37° C. 5% CO2 incubator for 0, 2, 5, and 7 days, and photos of each well were taken.
Bright-field photos were taken under the microscope, scale bar=100 μm. The imageview software measurement tool was used to count the length of the blood vessels generated by one organoid. The average of the total length of blood vessels was calculated. It was compared with the 20 ng/ml VEGF group. *p<0.05, **p<0.01. Error bars indicate ±SEM.
In the 3D […] experiment, the following conclusions can be drawn based on the bright field photos and the total length of blood vessels on 0, 2, 5, and 7 days after addition of drugs: […]

integrin protein αvβ3 = integrin protein αvβ3 (Homo sapiens, UniProt P05106+P06756); assay: Affinity test by surface plasmon resonance (Biacore 8K); assay type: binding
Method: The surface plasmon resonance instrument Biacore 8K was used to analyze the interaction between the compound and the integrin protein αvβ3. First, the system temperature was set to 25° C., and the flow rate to […]. PBS buffer was passed until the baseline was stable.
Without activating the surface of the chip, the integrin αvβ3 protein sample was dissolved in sodium acetate buffer with different pH values (pH=4, 4.5, 5) to make it carry different amounts of charge. Then the integrin protein sample flowed through the surface of the chip at a flow rate of 10 μL/min. Through the binding curve of integrin and the chip, a appropriate pH condition (pH=4.0) was determined. Finally, 50 mM NaOH eluate was injected to wash away the protein adsorbed on the chip surface.
CM5 chip was selected. The protein coupling was operated according to the amino coupling method, and the coupling steps are as follows: • (1) Activation: NHS/EDC mixture (0.1 M NHS and 0.4 M EDC, mixed at a volume ratio of 1:1 before use, and used immediately) was injected for 800 s at a flow rate of 10 μL/min, to activate the carboxyl of glucan on the surface of the chip; • (2) Immobilization: 20 ng/μL integrin αvβ3 protein solution was prepared with the buffer with the pH value determined in the pretreatment, and was injected for 800 s at a flow rate of 10 μL/min; • (3) Blocking: 1 M ethanolamine hydrochloride was used to block for 800 s to complete the immobilization process of the protein. 4.1.4 Binding Experiment
The compound to be tested was dissolved in PBS-P buffer (1.0×PBS, pH7.4, 0.15M Nacl, 0.05% tween-20), to prepare to a concentration of 50 μM. It was injected at a flow rate of 10 μL/min for a preliminary binding analysis.
The compound that was positive in the preliminary analysis was then prepared with buffers to a concentration gradient of 50 μM, 25 μM, 12.5 μM, 6.3 μM, 3.1 μM, 1.6 μM, 0.78 μM, 0.39 μM, 0.097 μM, 0.024 μM, and 0.0061 μM, and SB273005 was used as a positive control for a kinetic constant analysis.

[2] = tested on: prostate cancer PC-3 cells; assay: Anti-tumor activity assay (chemiluminescence), PC-3; assay type: cell-based; details: FIG. 21-22
Method: as §1
(§12) After the cultured tumor cells were sufficient to be passaged, they were digested with trypsin and a single cell suspension was prepared. After counting, cells were adjusted to a concentration of 1.2×10^4 cells/ml with the corresponding medium. 90 μl of the mixed solution was added to a 96-well plate and incubated at 37° C. for 30 minutes. Then the mixture was added with the corresponding medium and incubated in a cell incubator at 37° C. overnight. The morphology and confluence of tumor cells were observed. […]
(§13) Chemiluminescence method was used to measure ATP level of cells to evaluate cell viability. […] After mixing well, the lysis mixture was transferred to a microplate reader. After 5-10 minutes, the chemiluminescence data were gathered in the microplate reader. […]

[3] = tested on: ovarian cancer cell OVCAR-4; assay: Anti-tumor activity assay (chemiluminescence), OVCAR-4; assay type: cell-based; details: OVCAR-4 cells, FIG. 21-22
Method: as §1, §12, §13

[4] = tested on: vascular endothelial cell HUVEC-T11; assay: Activity assay (chemiluminescence), HUVEC-T11; assay type: cell-based; details: HUVEC-T11 cells, FIG. 21-22
[5] = tested on: drug-resistant 22RV1 cells; assay: Combination with enzalutamide on 22RV1 cells (chemiluminescence); assay type: cell-based; details: in combination with enzalutamide, enzalutamide-resistant 22RV1 cells, FIG. 23
Method: as §9

melanoma cell WM115 = assay: Anti-tumor activity assay (chemiluminescence), WM115; assay type: cell-based; details: WM115 cells, FIG. 21-22
Method: as §1, §12, §13

[6] = tested on: prostate cancer DU145 cells; assay: Anti-tumor activity assay (chemiluminescence), DU145; assay type: cell-based; details: FIG. 21-22
Method: as §1, §12, §13

[7] = tested on: microvascular endothelial cell HMEC-1; assay: Activity assay (chemiluminescence), HMEC-1; assay type: cell-based; details: HMEC-1 cells, FIG. 21-22
[8] = SPR, immobilized integrin αvβ3, 25° C., read-out: KD affinity

Sequence of integrin protein αvβ3 (P06756 31-1048): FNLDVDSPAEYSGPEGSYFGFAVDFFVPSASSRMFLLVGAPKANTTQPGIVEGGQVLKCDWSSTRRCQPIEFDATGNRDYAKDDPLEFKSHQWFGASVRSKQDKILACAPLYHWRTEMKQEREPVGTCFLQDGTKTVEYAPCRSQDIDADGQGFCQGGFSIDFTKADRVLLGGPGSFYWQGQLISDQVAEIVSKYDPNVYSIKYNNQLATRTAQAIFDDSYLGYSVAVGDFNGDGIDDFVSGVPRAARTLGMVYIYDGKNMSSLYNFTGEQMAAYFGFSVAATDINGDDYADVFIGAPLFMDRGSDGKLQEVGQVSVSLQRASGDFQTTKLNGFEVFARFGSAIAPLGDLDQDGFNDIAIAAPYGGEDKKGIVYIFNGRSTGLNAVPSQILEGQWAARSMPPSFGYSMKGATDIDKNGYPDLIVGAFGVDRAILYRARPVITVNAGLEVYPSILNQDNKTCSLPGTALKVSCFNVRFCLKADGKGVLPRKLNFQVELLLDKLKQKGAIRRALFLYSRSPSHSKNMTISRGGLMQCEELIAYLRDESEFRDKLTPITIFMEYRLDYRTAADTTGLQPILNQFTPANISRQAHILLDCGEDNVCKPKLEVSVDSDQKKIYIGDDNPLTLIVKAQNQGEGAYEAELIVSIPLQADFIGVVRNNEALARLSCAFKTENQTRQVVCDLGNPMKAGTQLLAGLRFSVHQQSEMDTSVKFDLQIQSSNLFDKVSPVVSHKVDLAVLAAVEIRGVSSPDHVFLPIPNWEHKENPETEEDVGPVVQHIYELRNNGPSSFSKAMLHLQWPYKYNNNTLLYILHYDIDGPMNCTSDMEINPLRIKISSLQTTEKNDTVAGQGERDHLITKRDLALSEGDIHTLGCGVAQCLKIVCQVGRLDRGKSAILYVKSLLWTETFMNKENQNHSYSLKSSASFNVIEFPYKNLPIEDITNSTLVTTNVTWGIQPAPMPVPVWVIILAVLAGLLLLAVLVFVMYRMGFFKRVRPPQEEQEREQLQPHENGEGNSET
Sequence of integrin protein αvβ3 (P05106 27-788): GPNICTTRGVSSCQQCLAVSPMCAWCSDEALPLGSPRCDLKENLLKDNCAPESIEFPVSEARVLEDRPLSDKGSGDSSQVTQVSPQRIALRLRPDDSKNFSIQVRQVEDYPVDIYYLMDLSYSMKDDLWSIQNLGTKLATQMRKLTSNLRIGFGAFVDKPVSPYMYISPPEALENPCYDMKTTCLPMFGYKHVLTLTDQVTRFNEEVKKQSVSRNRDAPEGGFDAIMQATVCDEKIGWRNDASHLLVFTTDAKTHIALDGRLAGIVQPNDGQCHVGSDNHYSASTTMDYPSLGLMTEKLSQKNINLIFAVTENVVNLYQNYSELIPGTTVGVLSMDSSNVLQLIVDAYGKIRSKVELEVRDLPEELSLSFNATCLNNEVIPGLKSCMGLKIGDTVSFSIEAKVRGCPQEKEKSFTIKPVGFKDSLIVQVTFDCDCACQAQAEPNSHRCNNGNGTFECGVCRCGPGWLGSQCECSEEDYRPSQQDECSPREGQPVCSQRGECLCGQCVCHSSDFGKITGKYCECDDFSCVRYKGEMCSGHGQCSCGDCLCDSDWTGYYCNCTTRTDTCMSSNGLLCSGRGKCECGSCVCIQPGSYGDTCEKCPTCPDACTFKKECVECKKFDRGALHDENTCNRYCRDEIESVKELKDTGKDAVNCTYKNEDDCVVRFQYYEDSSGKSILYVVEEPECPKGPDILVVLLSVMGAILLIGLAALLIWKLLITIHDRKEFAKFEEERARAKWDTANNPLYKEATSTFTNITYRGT

C/C(CCc1ccc(O)cc1)=N\NC(=O)c1n[nH]c2c1CCCC2 [19-1]
IC50 (tumor cells LNCaP): 28.8 µM

CC(C)C/C=C(/C=N/NC(=O)c1n[nH]c2c1CCCC2)c1ccccc1 [19-2]
IC50 (tumor cells LNCaP): 19.6 µM
Hillslope 22RV1 (tumor cells 22RV1): −0.7631
IC50 (tumor cells 22RV1): 364 µM

O=C(N/N=C/CCc1cccc(C(F)(F)F)c1)c1n[nH]c2c1CCCC2 [19-3]
IC50 (tumor cells LNCaP): 19.6 µM

Cc1ccc(/C=N/NC(=O)c2n[nH]c3c2CCCC3)cc1 [19-4]
inhibition of microtubule formation (HUVEC cells): significant inhibition
IC50 (tumor cells LNCaP): 0.36 µM
Hillslope 22RV1 (tumor cells 22RV1): −4.343
IC50 (tumor cells 22RV1): 0.25 µM
inhibition of angiogenesis (total length of blood vessels) compared with the VEGF group ([1]; 0.1 μM, FIG. 32): significantly inhibit angiogenesis

O=C(N/N=C/c1c(O)cc(O)cc1O)c1n[nH]c2c1CCCC2 [19-5]
IC50 (tumor cells LNCaP): 36.7 µM
Kd (integrin protein αvβ3; [8]): 2.15 µM
Hillslope 22RV1 (tumor cells 22RV1): −2.689
IC50 (tumor cells 22RV1): 49.6 µM

Cc1ccc(/C=N/NC(=O)c2n[nH]c3c2CCCC3)cc1O [19-6]
inhibition of microtubule formation (HUVEC cells): significant inhibition
IC50 (tumor cells LNCaP): 1.41 µM
Hillslope 22RV1 (tumor cells 22RV1): −3.273
IC50 (tumor cells 22RV1): 0.86 µM
inhibition of angiogenesis (total length of blood vessels) compared with the VEGF group ([1]; 3.0 μM, FIG. 33-34): significantly inhibit angiogenesis

COc1ccc(/C=N/NC(=O)c2n[nH]c3c2CCCC3)cc1OC [19-7]
inhibition of microtubule formation (HUVEC cells): did not show any obvious inhibition
IC50 (tumor cells LNCaP): 4.27 µM
Kd (integrin protein αvβ3; [8]): 10.1 µM
Hillslope 22RV1 (tumor cells 22RV1): −13.53
IC50 (tumor cells 22RV1): 4.08 µM

O=C(N/N=C/c1ccc([N+](=O)[O-])cc1)c1n[nH]c2c1CCCC2 [19-8]
inhibition of microtubule formation (HUVEC cells): did not show any obvious inhibition
IC50 (tumor cells LNCaP): 3.76 µM
Hillslope 22RV1 (tumor cells 22RV1): −1.177
IC50 (tumor cells 22RV1): 3.49 µM

COc1ccc(/C=N/NC(=O)c2n[nH]c3c2CCCC3)cc1O [19-9]
inhibition of microtubule formation (HUVEC cells): significant inhibition
IC50 (tumor cells LNCaP): 1.09 µM
Kd (integrin protein αvβ3; [8]): 0.78 µM
Hillslope 22RV1 (tumor cells 22RV1): −2.911
IC50 (tumor cells 22RV1): 0.47 µM
inhibition of angiogenesis (total length of blood vessels) compared with the VEGF group ([1]; 3.0 μM, FIG. 33-34): significantly inhibit angiogenesis

O=C(N/N=C/c1cccc(O)c1)c1n[nH]c2c1CCCC2 [Formula (5)]
anti-tumor activity (activity curve) [2]: obvious anti-tumor activity
anti-tumor activity (activity curve) (tumor cells LNCaP; FIG. 21-22): obvious anti-tumor activity
inhibitory effect (activity curve) [3]: inhibitory effect
Kd (integrin protein αvβ3; stated in summary text, read-out: KD value interacting with the protein αvβ3): 0.158 µM
anti-tumor activity (activity curve) (tumor cells 22RV1; FIG. 21-22): obvious anti-tumor activity
inhibitory effect (activity curve) [4]: inhibitory effect
effect of combination with enzalutamide [5]: synergistic effect
tumor-inhibiting effect (activity curve) (melanoma cell WM115): highest tumor-inhibiting effect
anti-tumor activity (activity curve) [6]: obvious anti-tumor activity
inhibitory effect (activity curve) [7]: inhibitory effect
